What was measured:
P. hemolytica = assay: Systemic infection model in mice, ED50, P. hemolytica; format: in vivo; details: Mus musculus, sc, 144 h, strain UC6532, lactamase producing, subcutaneous, 0, 24, 48 hours post infection, 50% survival six days post infection, per day, read-out: ED50 (95% confidence limits)
Protocol: (§1) Experimental Infections and Antitiotic Treatment (for ED50 in mice tests).
(§2) Mice are infected and treated with the test antibiotic compound according to procedures described previously [Yancey, Jr., R. J. et at. supra].
(§3) The test antibiotic compound is administered subcutaneously immediately following infection, then at 24 hours and 48 hours post infection. The medium effective dose (ED50) number is determined for all infections. The ED50 value is defined as the calculated concentration of the test antibiotic compound in mg. of compound per kilogram of mouse body weight per day at which 50% of the animals survived six days post infection.

Salmonella typhimurium = assay: Systemic infection model in mice, ED50, Salmonella typhimurium; format: in vivo; details: Salmonella enterica, TYPHIMURIUM / UC6164, sc, 144 h, strain UC6164, lactamase producing, subcutaneous, 0, 24, 48 hours post infection, 50% survival six days post infection, per day, read-out: ED50 (95% confidence limits)
Protocol: as §1, §2, §3

Compound: CC1(C)S[C@@H]2[C@H](NC(=O)[C@H](N)c3ccccc3)C(=O)N2[C@H]1C(=O)O [ampicillin]
- ED50 (P. hemolytica): > 100 mg/kg
- ED50 (Salmonella typhimurium): > 100 mg/kg
